Assay results reported in publication PMC9607545, “Cry4Aa and Cry4Ba Mosquito-Active Toxins Utilize Different Domains in Binding to a Particular Culex ALP Isoform: A Functional Toxin Receptor Implicating Differential Actions on Target Larvae” (Toxins, 2022).

Experiments:
Cq-mALP1263 = target: T1, Cq-mALP1263 (Culex quinquefasciatus, UniProt A0A9E8ACD0); assay: hydrolysis in Sf9 cell lysate, absorbance of p-nitrophenol at […] nm; format: biochemical; settings: 5 mM pNPP, 100 mM Tris-HCl pH 9.5, 5 mM MgCl2, 100 mM NaCl, 30 °C, 10 min; control: CAT-expressing lysate (endogenous ALP activity present)
T1 construct: full-length ORF, 523 residues, ~57 kDa, 1569 bp cDNA from 4th instar larval midgut; N-terminal signal peptide and predicted GPI anchor; baculovirus (AcMNPV) expression in Sf9 cells
T1 sequence (A0A9E8ACD0 19-523): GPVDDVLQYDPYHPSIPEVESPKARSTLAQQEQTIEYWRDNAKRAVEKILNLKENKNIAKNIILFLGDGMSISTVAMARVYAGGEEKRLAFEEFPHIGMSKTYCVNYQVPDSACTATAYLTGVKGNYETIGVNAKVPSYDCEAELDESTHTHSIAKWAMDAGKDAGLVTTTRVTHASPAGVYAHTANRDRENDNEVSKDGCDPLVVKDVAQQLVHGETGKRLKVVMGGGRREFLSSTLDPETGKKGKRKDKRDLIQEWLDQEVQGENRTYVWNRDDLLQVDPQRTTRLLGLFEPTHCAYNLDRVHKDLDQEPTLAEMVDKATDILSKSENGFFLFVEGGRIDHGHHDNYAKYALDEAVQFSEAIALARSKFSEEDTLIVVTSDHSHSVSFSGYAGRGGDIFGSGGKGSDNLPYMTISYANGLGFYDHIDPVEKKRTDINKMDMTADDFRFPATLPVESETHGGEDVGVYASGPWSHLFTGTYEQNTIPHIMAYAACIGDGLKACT

Cq-mALP1264 = target: T2, Cq-mALP1264 (Culex quinquefasciatus, UniProt A0A9E8AEX0); assay: as above; format: biochemical; settings: 5 mM pNPP, 100 mM Tris-HCl pH 9.5, 5 mM MgCl2, 100 mM NaCl, 30 °C, 10 min; control: CAT-expressing lysate (endogenous ALP activity present)
T2 construct: full-length ORF, 552 residues, ~61 kDa, 1656 bp cDNA from 4th instar larval midgut; N-terminal signal peptide and predicted GPI anchor; baculovirus (AcMNPV) expression in Sf9 cells
T2 sequence (A0A9E8AEX0 21-552): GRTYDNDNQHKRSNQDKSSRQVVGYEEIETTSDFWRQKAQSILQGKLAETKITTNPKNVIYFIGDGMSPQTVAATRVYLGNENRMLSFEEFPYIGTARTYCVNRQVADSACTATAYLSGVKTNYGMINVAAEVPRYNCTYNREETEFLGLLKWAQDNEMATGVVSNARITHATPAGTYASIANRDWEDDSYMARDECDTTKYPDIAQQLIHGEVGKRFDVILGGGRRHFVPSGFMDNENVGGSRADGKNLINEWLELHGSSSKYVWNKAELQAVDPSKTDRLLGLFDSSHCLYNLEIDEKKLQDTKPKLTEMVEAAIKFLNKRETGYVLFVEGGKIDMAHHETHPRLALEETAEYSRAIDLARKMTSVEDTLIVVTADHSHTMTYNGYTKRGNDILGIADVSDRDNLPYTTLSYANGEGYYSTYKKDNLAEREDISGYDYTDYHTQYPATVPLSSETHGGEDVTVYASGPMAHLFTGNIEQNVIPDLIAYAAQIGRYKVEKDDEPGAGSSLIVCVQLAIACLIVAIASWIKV

O=[N+]([O-])c1ccc(OP(=O)(O)O)cc1 [pNPP]
hydrolysis in Sf9 cell lysate, absorbance of p-nitrophenol at 405 nm (Cq-mALP1263): both Cq-mALP-expressed cells produced significantly higher ALP activity than CAT-expressed cells
hydrolysis in Sf9 cell lysate, absorbance of p-nitrophenol at 405 nm (Cq-mALP1264): both Cq-mALP-expressed cells produced significantly higher ALP activity than CAT-expressed cells
